Data on eleven compounds can be found in ChEMBL document CHEMBL1201862, “PubChem BioAssay data set” (2004).

The target of one series is Cytochrome P450 2C9 (Homo sapiens, UniProt P11712).
The target of the next series is Cytochrome P450 2C19 (Homo sapiens, UniProt P33261). The series can be described thus: Cytochrome panel assay with activity outcomes. Panel member name: p450-cyp2c19 Compounds with AC50 equal or less than 10 uM are considered active. The series is classed as functional.
The target in another series is T1, Cytochrome P450 1A2 (Homo sapiens, UniProt P05177).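 Note: PubChem cytochrome P450 panel assay, CYP1A2 panel member.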
T1 sequence (P05177 whole entry): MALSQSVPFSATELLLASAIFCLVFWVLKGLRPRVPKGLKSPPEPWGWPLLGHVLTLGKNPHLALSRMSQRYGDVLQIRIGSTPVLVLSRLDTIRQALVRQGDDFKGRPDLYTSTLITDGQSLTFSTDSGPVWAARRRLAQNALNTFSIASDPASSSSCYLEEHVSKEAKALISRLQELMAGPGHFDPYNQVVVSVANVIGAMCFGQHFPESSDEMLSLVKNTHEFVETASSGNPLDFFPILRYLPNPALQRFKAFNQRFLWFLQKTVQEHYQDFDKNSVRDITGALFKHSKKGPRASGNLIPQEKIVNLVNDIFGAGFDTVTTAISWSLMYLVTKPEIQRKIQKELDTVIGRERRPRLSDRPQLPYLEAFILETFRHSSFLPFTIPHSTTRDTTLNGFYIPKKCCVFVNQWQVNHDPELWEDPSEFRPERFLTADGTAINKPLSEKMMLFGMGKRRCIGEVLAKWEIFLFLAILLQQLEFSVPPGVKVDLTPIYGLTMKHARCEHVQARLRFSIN

The target of another series is Cytochrome P450 3A4 (Homo sapiens, UniProt P08684).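 Note: CYP3A4 tested as one member of a cytochrome P450 panel screen.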
Cytochrome P450 3A4, sequence (P08684 whole entry): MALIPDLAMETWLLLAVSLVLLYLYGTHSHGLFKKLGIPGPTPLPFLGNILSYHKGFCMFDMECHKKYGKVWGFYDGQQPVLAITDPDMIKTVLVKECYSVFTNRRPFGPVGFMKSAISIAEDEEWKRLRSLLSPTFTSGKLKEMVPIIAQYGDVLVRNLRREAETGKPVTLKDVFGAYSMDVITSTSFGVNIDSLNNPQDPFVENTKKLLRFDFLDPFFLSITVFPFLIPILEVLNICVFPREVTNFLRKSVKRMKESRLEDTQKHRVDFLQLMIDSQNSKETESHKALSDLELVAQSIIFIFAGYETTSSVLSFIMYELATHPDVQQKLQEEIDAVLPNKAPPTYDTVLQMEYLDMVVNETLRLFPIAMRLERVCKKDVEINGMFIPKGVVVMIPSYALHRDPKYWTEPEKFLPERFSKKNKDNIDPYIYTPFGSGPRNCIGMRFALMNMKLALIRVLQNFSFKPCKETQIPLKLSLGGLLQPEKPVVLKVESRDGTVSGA
Series [1] concerns the target T2, Ubiquitin-conjugating enzyme E2 N (Homo sapiens, UniProt P61088).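 Note: Dose-response confirmation in a TR-FRET assay detecting UBC13-driven polyubiquitin chain formation, inhibition measured.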
T2 sequence (P61088 whole entry): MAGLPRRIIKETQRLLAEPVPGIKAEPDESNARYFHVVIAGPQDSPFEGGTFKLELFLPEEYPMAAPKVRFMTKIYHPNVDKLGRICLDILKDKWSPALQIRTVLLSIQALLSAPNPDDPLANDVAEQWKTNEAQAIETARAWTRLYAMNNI
The series is classed as functional.

Series [2] in a line: Luminescence Cell-Based Dose Retest to Confirm Inhibitors of Cancer Stem Cells. [Related pubchem assays (depositor defined):AID2717, AID2721]. To be noted: Homo sapiens. The series is classed as functional.
Series [3] is described as follows: growth suppression of PTEN-null colon cells, dose response, cell-based, HCT116 PTEN knockout (AID 1047).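 Note: HCT116 colon tumor cells with PTEN knocked out; cells exposed to compound for 60 hours before readout; potency for loss of cell viability measured by luminescence.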 The class given is functional.
Series [4] is described as follows: growth suppression of beta-catenin-knockout colon cells, dose response, cell-based, HCT116, human colon tumor (AID 1045).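 Note: HCT116 colon tumor cells with beta catenin knocked out; cells exposed to compound for 60 hours.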 The class given is functional.
Series [5] can be described thus: inhibitors of intracellular T. cruzi replication, confirmation, NIH3T3 host cells, beta-gal luminescence (AID 2044).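 Note: intracellular parasites grown in NIH/3T3 mouse fibroblasts as host cells; luminescent beta-galactosidase reporter signal from transgenic T. cruzi replicating inside host cells; inhibitors lower the luminescence signal.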 The series is classed as functional, cell-based.
Series [6] is described as follows: cytotoxicity toward NIH3T3 fibroblasts, dose response, counter-screen, cell-based, ATP luminescence, mouse fibroblasts (AID 2010).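 Note: cells exposed to compound for about 90 hours before reading.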 The class given is functional. On the technique in general: The purpose of a counterscreen is to sort out artefacts and off-target activity.
A further series deals with T3, Protein RecA (Mycobacterium tuberculosis, UniProt P9WHJ3).
T3 sequence (P9WHJ3 whole entry): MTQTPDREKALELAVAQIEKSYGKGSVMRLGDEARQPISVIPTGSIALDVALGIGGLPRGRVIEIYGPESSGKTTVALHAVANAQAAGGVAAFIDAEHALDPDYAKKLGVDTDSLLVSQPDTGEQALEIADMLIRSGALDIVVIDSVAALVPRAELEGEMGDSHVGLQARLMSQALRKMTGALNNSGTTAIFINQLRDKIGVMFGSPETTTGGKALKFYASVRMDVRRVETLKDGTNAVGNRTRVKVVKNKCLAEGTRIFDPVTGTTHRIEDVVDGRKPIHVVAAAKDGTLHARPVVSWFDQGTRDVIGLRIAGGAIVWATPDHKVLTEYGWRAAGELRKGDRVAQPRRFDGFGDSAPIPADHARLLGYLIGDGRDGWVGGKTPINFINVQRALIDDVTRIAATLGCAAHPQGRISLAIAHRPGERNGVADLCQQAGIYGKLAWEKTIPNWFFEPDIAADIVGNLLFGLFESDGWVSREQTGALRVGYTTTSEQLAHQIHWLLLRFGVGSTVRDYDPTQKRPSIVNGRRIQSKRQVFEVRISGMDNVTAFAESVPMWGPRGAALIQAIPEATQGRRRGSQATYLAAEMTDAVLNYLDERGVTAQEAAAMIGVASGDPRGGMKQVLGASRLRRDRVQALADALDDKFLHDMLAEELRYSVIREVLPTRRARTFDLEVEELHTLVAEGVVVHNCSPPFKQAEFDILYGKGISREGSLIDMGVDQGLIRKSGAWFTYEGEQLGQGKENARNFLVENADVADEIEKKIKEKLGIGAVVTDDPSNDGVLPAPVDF
Briefly: Fluorescence Cell-Free Homogeneous Dose Retest to Identify Inhibitors of RecA-Intein Splicing Activity. [Related pubchem assays (depositor defined):AID2097, AID2223, AID489010, AID492950]. The series is classed as functional.

A short description of series [7]: HeLa cell cytotoxicity, dose response, cytotoxicity control for MgcRacGAP inhibitor project (AID 624300). The series is classed as functional.
The target in series [8] is T4, Replicative DNA helicase DnaB (Mycobacterium tuberculosis, UniProt P9WMR3).
T4 sequence (P9WMR3 whole entry): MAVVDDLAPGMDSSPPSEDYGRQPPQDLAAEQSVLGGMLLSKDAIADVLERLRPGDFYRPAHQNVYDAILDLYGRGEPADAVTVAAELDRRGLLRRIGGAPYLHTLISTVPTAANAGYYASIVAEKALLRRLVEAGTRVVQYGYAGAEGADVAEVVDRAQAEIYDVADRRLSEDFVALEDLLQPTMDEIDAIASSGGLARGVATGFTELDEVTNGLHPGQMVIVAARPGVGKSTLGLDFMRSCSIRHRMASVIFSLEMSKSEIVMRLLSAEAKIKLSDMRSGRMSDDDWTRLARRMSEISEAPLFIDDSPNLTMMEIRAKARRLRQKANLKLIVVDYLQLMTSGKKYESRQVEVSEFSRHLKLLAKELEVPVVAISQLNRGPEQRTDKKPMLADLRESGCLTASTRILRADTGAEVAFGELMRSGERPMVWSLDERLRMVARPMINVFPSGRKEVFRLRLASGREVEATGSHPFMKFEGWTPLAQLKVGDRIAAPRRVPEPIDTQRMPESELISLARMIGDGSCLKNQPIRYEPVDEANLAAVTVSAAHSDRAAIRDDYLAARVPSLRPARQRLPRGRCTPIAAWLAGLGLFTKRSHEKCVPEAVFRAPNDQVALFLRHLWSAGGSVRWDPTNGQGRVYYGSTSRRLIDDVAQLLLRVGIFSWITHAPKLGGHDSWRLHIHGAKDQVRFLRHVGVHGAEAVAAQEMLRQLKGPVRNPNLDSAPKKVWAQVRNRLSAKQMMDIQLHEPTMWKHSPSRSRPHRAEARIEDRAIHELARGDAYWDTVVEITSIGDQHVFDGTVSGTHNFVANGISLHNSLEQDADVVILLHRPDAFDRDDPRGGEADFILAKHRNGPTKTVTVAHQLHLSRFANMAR
The series can be described thus: DnaB intein splicing inhibitors, dose response, biochemical, cell-free fluorescence (AID 449749). The class given is functional.

In series [9] the target is T5, Rac GTPase-activating protein 1 (Homo sapiens, UniProt Q9H0H5).
T5 sequence (Q9H0H5 whole entry): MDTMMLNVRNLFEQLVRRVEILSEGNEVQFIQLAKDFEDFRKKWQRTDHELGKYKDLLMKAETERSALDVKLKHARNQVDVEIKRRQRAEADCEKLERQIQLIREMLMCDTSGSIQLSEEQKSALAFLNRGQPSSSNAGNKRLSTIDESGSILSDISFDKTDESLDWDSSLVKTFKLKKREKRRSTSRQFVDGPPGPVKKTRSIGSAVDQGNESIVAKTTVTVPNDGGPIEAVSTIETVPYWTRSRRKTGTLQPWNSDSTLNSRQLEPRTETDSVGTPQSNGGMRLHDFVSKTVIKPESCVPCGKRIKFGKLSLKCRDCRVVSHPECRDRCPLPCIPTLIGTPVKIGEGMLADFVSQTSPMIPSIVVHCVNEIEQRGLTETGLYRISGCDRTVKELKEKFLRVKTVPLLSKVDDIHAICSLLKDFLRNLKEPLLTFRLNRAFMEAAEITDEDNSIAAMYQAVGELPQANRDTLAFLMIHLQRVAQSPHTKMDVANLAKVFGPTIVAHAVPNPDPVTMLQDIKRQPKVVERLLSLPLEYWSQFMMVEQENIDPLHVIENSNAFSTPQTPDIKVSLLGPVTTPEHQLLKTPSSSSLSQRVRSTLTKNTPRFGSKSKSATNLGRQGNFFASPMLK
The series can be described thus: MgcRacGAP GTPase-activating activity inhibitors, confirmation, biochemical, ADP Hunter fluorescence, primary and confirmatory (AID 624330). The class given is functional.

The source made the active and inactive calls.

Cytochrome P450 2C9, sequence (P11712 whole entry): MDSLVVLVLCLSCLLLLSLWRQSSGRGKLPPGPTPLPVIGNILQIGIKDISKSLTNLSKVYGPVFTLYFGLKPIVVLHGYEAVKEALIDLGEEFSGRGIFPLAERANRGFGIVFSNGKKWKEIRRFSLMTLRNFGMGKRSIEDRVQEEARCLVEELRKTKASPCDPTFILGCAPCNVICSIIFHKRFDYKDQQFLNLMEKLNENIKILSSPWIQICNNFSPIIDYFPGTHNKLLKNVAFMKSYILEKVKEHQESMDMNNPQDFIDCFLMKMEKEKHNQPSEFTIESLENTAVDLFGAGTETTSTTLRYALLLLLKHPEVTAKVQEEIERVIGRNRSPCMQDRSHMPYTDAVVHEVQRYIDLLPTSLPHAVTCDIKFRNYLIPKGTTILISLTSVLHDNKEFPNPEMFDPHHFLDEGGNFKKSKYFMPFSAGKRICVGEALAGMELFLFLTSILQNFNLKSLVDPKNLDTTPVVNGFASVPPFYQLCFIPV
Cytochrome P450 2C19, sequence (P33261 whole entry): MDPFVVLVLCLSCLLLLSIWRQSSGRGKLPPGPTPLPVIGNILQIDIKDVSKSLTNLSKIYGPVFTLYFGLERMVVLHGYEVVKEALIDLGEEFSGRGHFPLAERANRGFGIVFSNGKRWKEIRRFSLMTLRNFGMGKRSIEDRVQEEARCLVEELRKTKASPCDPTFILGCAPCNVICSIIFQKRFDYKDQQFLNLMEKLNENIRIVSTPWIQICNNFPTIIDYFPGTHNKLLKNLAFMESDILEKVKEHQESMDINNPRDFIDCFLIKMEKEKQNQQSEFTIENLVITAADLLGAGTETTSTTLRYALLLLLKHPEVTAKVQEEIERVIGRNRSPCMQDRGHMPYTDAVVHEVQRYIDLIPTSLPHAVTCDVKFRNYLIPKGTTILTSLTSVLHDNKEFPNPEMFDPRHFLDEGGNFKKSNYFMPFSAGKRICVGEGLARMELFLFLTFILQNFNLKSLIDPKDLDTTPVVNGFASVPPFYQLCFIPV

In the case of `Cc1ccc(C(=O)NC(=S)Nc2cc(C(F)(F)F)ccc2Cl)cc1`, the AC50 (usually the midpoint of the concentration-response curve, whichever way the signal moves) on Cytochrome P450 2C9 was “inconclusive”; on Cytochrome P450 2C19, “inconclusive”; at Cytochrome P450 1A2, 0.562 µM (inconclusive).

In the case of `CCC12CN3CC(CC)(CN(C1)C3c1cccnc1)C2=O` (configuration not stated), the concentration at half-maximal activity (AC50) entry at Cytochrome P450 2C9 is “inconclusive”; on Cytochrome P450 3A4, 4.47 µM (inconclusive); at Cytochrome P450 1A2 it was 28.2 µM (inconclusive).

As for `COc1cc2[nH]c3c(N4CCN(c5ccc(Cl)cc5)CC4)ncnc3c2cc1OC`, the IC50 (usually the point on the concentration scale where inhibition reaches its midpoint) in series [1] was > 20 µM (inactive).

Regarding `COc1ccc(C(=O)Nn2cnc3ccccc3c2=O)c(OC)c1`, the figures for the AC50 entry on Cytochrome P450 2C9, on Cytochrome P450 2C19 (read-out: AC50) and at Cytochrome P450 1A2 were “inconclusive”, 17.8 µM (inconclusive) and 11.2 µM (inconclusive), respectively.

On to `CCn1c(=O)c(C(=O)NCCN2CCCCC2)c(O)c2ccccc21`, for which the IC50 in [1] was > 20 µM (inactive).

Take `N#C/C(=C/c1cn(-c2ccccc2)nc1-c1cccc(OCc2ccccc2)c1)C(=O)NCCCn1ccnc1`: the AC50 in series [2] was 5.32 µM (active). Further, the concentration for a half-maximal effect (EC50) (commonly the midpoint of the concentration-response curve) in [3] is 23.8 µM (active); in series [4] it was 22 µM (active); in series [5], 1.44 µM (active); in series [6], > 30 µM (not active). For the same compound, in series [1], the IC50 was > 20 µM (inactive).

Consider `COc1ncc2nc(-c3cn(C)c4ccccc34)c(=O)n(-c3ccccc3)c2n1`, for which the AC50 result at Cytochrome P450 2C9 was “inconclusive”; at Cytochrome P450 3A4, 3.16 µM (inconclusive); at Cytochrome P450 1A2, 5.01 µM (inconclusive).

On to `CCN(CC)S(=O)(=O)c1ccc(C(=O)NNC(=O)C2CCN(S(=O)(=O)c3ccc(Cl)cc3)CC2)cc1`, for which the IC50 in series [1] was > 20 µM (inactive).

For the compound `CCN(Cc1ccccc1)C(c1ccc(C)cc1)c1nnnn1C(C)(C)CC` (configuration not stated), the EC50 on Protein RecA was > 380 µM (inactive). Also, in [7], the CC50 (as a rule, the concentration at which the toxic effect on the cells reaches its halfway point) was 100 µM (active). In series [8], the concentration at half-maximal activity (AC50) was 2.41 µM (active).

Turning to `COc1ccc(CNCCc2ccc(Cl)cc2)c(OC)c1OC`, the half-inhibitory concentration (IC50) in series [9] was 259 µM (active). The EC50 in [5] is 0.462 µM (active); in series [6], > 60 µM (not active). For the same compound, in series [7], the CC50 is 100 µM (active).

As to `Cc1sc(N/N=C/C=C/c2ccccc2)nc1-c1ccccc1`, the AC50 entry at Cytochrome P450 2C9 is “inconclusive”; at Cytochrome P450 1A2, 3.55 µM (inconclusive). Besides, the 50% effective concentration (EC50) in series [5] was 2.67 µM (active); in [6], 13.8 µM (active).
